Source: patent publication US12416052B2, “Capturing, concentrating, and detecting microbes in a sample using magnetic ionic liquids and recombinase polymerase amplification” (priority 2019, dated 2025)
Values joined by “and” are separate entries in the source; they are usually repeats but may differ in a detail not shown here. Equal values may be shown once.

Tests used:
[1] = system: S. enterica subsp. diarizonae; assay type: cell-based, Salmonella enterica; set-up: key to Relative Affinity for MIL: +++++: higher losses during wash step are due to lower cellular affinity for the MIL; ++++: higher losses during wash step are due to lower cellular affinity for the MIL; +++: higher losses during wash step are due to lower cellular affinity for the MIL; ++: higher losses during wash step are due to lower cellular affinity for the MIL; +: higher losses during wash step are due to lower cellular affinity for the MIL
Procedure: (§1) A universal schematic for MIL-based cell extraction is depicted in FIG. 7B. A 1 mL volume of diluted cell suspension was added to a flat-bottomed 4-mL screw cap glass vial. Fifteen microliters of either the Ni(II) or Dy(III) MIL was added and dispersed into microdroplets by vortex agitation for 30 s. The aqueous phase was decanted following dispersive extraction, and the MIL was subjected to a brief wash step using 1 mL of nuclease-free water (Integrated DNA Technologies, Coralville, IA, USA) to ensure adequate removal of loosely or incidentally bound cells. After washing, release of viable cells from the MIL extraction phase was carried out using a “back-extraction” step accomplished through addition of 1 mL of an ionically-rich nutritive medium comprised of 20 g L^−1 tryptone and 10 g L^−1 NaCl, followed by a 120 s vortex step. After back-extraction, aliquots of the cell-enriched back-extraction medium were enumerated using the track dilution method using 100×100 mm square, gridded TSA, BSA, CA or VRBGA plates.
(§2) Following back-extraction, aliquots of the cell-enriched back-extraction medium were serially diluted in 0.1% peptone water and a 10 μL aliquot of each dilution was applied to a separate lane on square plates containing an appropriate agar medium. The plates were then tilted at an approximately 80° angle for 15 min to allow the droplets to travel toward the opposite end of the plate. The plates were incubated for 24 h at 37° C. (TSA, VRBGA), for 48 h at 37° C. (BSA) or for 24 h at 37° C. (CA). Colonies were counted and colony forming units (CFU) were determined. The enrichment factor (EF) for MIL-based extraction was calculated using Equation 1, where CMIL represents the concentration of bacteria in suspension following extraction using the MIL and CS is the initial concentration of bacteria in the sample.
(§3) In order to explore the broader utility of our approach, evaluation of additional cell types is needed. We began this extended evaluation of the Ni(II) MIL with seven representative DNA subgroups of Salmonella and eight strains of E. coli O157:H7. Briefly, a 1 mL aliquot of TSB was inoculated with 1×10^6 CFU mL^−1 of bacteria, and spiked with 15 μL of the Ni(II) MIL. MIL-based extraction was performed and 10 μL aliquots of the back-extraction solution were enumerated using TSA and BSA plates (Salmonella) or TSA plates (E. coli O157:H7). […] We later determined that VRBGA was a suitable common medium for this purpose and used this in our statistical analysis. Average CFU counts were compared to standards that were not exposed to the Ni(II) MIL. Enrichment factors were calculated for Salmonella on both non-selective (TSA) and selective agars (BSA) and for E. coli O157:H7 on non-selective agar (TSA). […] Note: As BSA is a Salmonella-specific agar E. coli O157:H7 was not plated to BSA in this example.
(§4) Although all of the strains assessed were capable of being enriched by the MIL, some species were physically enriched to greater extents than others with extraction. In order to further examine the cause for this finding, the number of captured cells lost to the wash solution was investigated. The wash step is performed after the MIL enrichment step in order to remove any incidentally-adsorbed bacteria prior to back-extraction. It is hypothesized that the cells with lower enrichment factors have lower affinities for the MIL and are therefore lost in greater number to the wash solution than those having higher enrichment factors. […] The percent-loss during the wash step ranged from 47-79%. […] EF data from Table 4 for three overlapping Salmonella strains are superimposed to highlight trends in percent-loss, relative affinity and EF.

[2] = system: S. enterica subsp. arizonae; assay type: cell-based, Salmonella enterica; set-up: key to Relative Affinity for MIL: +++++: higher losses during wash step are due to lower cellular affinity for the MIL; ++++: higher losses during wash step are due to lower cellular affinity for the MIL; +++: higher losses during wash step are due to lower cellular affinity for the MIL; ++: higher losses during wash step are due to lower cellular affinity for the MIL; +: higher losses during wash step are due to lower cellular affinity for the MIL
Procedure: as §1, §2, §3, §4

[3] = 1×10^6 CFU mL^−1 in TSB, 15 μL MIL

CCCCCCCCCCCCCC[P+](CCCCCC)(CCCCCC)CCCCCC.O=C([CH-]C(=O)C(F)(F)F)C(F)(F)F.O=C([CH-]C(=O)C(F)(F)F)C(F)(F)F.O=C([CH-]C(=O)C(F)(F)F)C(F)(F)F.[Ni+2] [Ni(II) MIL, [P66614^+][Ni(hfacac)3^−]]
Relative Affinity for MIL [1]: +++++ | Enrichment Factor (BSA) [1, 3]: 11 | Enrichment Factor (TSA) [1, 3]: 7 | Percent-Loss ([1]; cells lost to wash solution: wash counts / (wash + back-extraction counts) × 100): 47 ± 7% | Relative Affinity for MIL [2]: + | Enrichment Factor (BSA) [2, 3]: 2 and 4 | Enrichment Factor (TSA) [2, 3]: 3 | Percent-Loss ([2]; cells lost to wash solution): 79 ± 1%
